How the values were obtained:
rat aortic rings = test: Aorta ring assay (ex vivo); conditions: VEGF 25 ng mL^−1 positive control, 14 days
Procedure: An aorta ring assay was conducted to confirm the anti-angiogenesis effect of Lf-GL ex vivo. A 48-well plate was coated with of Matrigel® (100 μL) and was incubated for 30 min or more in 37℃ incubators. In the meantime, thoracic aortas of 7-week-old male SD rats were excised. Then, the fat layer and outer membrane were removed, and rings approximately 1 mm in length were prepared. The prepared aortic rings were seeded on a coated Matrigel® of 48-well plate and were covered with Matrigel®. (100 μL) Subsequently, the aortic ring was treated with a control (with or without 25 ng mL^−1 of VEGF) or different concentrations of Lf-GL complex. Medium was changed once every two days. Fourteen days after treatment, optical images of sprouting microvessels were obtained using microscopy magnification (× 40 or × 100). Sprouting microvessel area was quantified using Image J and Sigma Plot.
Fig. S14. Significant inhibitory effect of Lf-GL in aortic ring angiogenesis. Optical images of vessel regression in aortic ring with Lf-GL treatment. Aortic ring assay was carried out in 48-well plate coated with Matrigel. VEGF-non treated control represents that aortic ring incubated with normal medium. VEGF-treated control represents that aortic ring incubated with 25 ng mL^-1 VEGF-conditioned medium. […]

U87MG [1] = test: HMGB1-mediated GBM cell proliferation (CCK-8); assay type: cell-based, human
Procedure: (§1) Cell viability was determined using a cell counting kit-8 (CCK-8). U87MG and HUVECs (seeding density: 0.75 × 10^4 cells per well) in 96-well culture plates were treated with GL, Lf, or Lf-GL (25 to 200 × 10^–6 M of GL equivalent concentration) and were incubated for different periods of time (24, 48, and 72 h). After washing with PBS, they were treated with a cell culture medium containing a CCK-8 assay kit (Abbkine) and were incubated at 37 °C and 5% CO2 for 2 h. Then, absorbance was measured at 450 nm in a micro-plate reader (VLBL00D0, Thermo Fisher Scientific). Results were quantified using Sigma Plot (Systat Software, USA). To determine the effect of extracellular HMGB1 in GBM and endothelial cell proliferation, U87MG and HUVECs were seeded in 96-well culture plates (seeding density: 0.75 × 10^4 cells per well) and GL, Lf, or Lf-GL (50 × 10^–6 M GL equivalent concentration) were added to cells with or without HMGB1 protein (U87MG: 0.1 μg mL^−1, and HUVEC: 1 μg mL^−1). Cells were incubated for different periods of time (24, 48, and 72 h).

U87MG [2] = test: Wound-healing scratch (cell migration) assay; assay type: cell-based, human; conditions: HMGB1 0.1 μg mL^−1, 24 h
Procedure: A wound-healing scratch assay was performed in U87MG to evaluate the effect of GL, Lf and Lf-GL treatment on the cancer cell migration. Cells were seeded in 100 mm-cell culture dishes, 2.0 × 10^6 cells per dish. After the cells were grown to 80% confluence, a scratch was made through the cell monolayer with a 200 μL pipet tip, and it was washed with PBS. Photographs (4 ×) were taken in each of three different scratch areas, and their location on the dish was marked. GL (50 × 10^–6 M), Lf (5 × 10^–6 M) or Lf-GL (1 × 10^–6 M) dissolved in serum-free medium were added to cells with or without HMGB1 protein (0.1 μg mL^−1). Then, cells were incubated for 24 h, and the same areas were re-photographed. Migration distances were examined using the scale bar.

HUVEC [3] = test: HMGB1-mediated HUVEC proliferation (CCK-8); assay type: cell-based, human
Procedure: as §1

HUVEC [4] = test: Capillary tube formation assay; assay type: cell-based, human; conditions: HMGB1 (+) control vs HMGB1 (-) control, 24 h
Procedure: A 24-well plate was coated with of Matrigel® (200 μL, Corning, NY, USA) and was incubated for 30 min in 37℃ incubators. HUVECs were seeded upon a coated Matrigel® 24-well plate (seeding density: 5.0 × 10^4 cells per well). Subsequently, cells were treated with GL (50 × 10^–6 M), Lf (5 × 10^–6 M) or Lf-GL (1 × 10^–6 M) and incubated for 24 h. Then, Calcein AM was added to each well, and the formation of tubes was observed using fluorescence microscopy. These tubes were quantified using Image J.

ERK phosphorylation = test: Western blot of phospho-ERK/ERK in HUVEC; assay type: cell-based, human; conditions: 24 h of treatment with HMGB1
Procedure: Total cellular protein concentration was determined using a BCA Protein Assay Kit (Pierce, Rockford, IL, USA). Equal amounts of protein from cell lysates were loaded onto a 12% sodium dodecyl sulfate–polyacrylamide gel. After electrophoresis, proteins were transferred to polyvinylidene fluoride membranes blocked with 5% bovine serum albumin for 1 h at room temperature and were diluted 1:500 with the indicated primary antibodies (rabbit anti-ERK1/2, anti-phospho-ERK1 and β-actin antibodies [Cell Signaling Technology, INC.]). Then, the membrane was washed 3 times for 15 min with tris-buffered saline containing Tween 20 and was incubated with HRP-conjugated secondary antibody for 1 h at room temperature. After washing three times for another 15 min with Tris-buffered saline with Tween 20, immune complexes were detected with an enriched chemiluminescent reagent (EZ-Western Lumi Femto, DoGen, South Korea) and staining was quantified by densitometry analysis using an Alpha Imager 2200.

Substance	Increase of outgrowth of endothelial tubules (rat aortic rings) [%]	Tumor growth compared to controls not treated with HMGB1 (U87MG [1]; HMGB1 0.1 μg mL^−1, day 1) [%]	Tumor growth compared to controls not treated with HMGB1 (U87MG [1]; HMGB1 0.1 μg mL^−1, day 2) [%]	Tumor growth compared to controls not treated with HMGB1 (U87MG [1]; HMGB1 0.1 μg mL^−1, day 3) [%]	Migration distance more than HMGB1-nontreated cell (U87MG [2]) [μm]	Angiogenic potential (viability) of HUVEC vs control (HUVEC [3]; HMGB1 1 μg mL^−1, day 1) [%]	Angiogenic potential (viability) of HUVEC vs control (HUVEC [3]; HMGB1 1 μg mL^−1, day 2) [%]	Angiogenic potential (viability) of HUVEC vs control (HUVEC [3]; HMGB1 1 μg mL^−1, day 3) [%]	Increase of newly generated micro-vessels (tube number) (HUVEC [4]) [%]	Increase of p-ERK level compared to non-treatment (ERK phosphorylation) [times]
VEGF [reference compound]	51.1 ± 105.2	–	–	–	–	–	–	–	–	–
HMGB1: High-mobility group box-1 protein added to cells as stimulus	–	110.7 ± 8.2	133.4 ± 1.3	140.7 ± 5.2	121.3 ± 42.8	108.2 ± 7.9	137.9 ± 12.3	169.8 ± 18.1	21.0 ± 2.1	2.3
